Measured values taken from patent US20100056535A1, “Inhibitors of HIV-1 reverse transcriptase” (Roche Palo Alto LLC, priority 2008, published 2010).
Where two headings read alike, the source gives them in different places.

What was measured:
[1] = tested on: HXB2-strain of HIV-1 in MT4 cells; assay: Antiviral assay: protection of HIV-1-infected MT4 cells from cell death (MTT); type: cell-based
Experimental: Anti-HIV-1 antiviral activity was assessed using an adaptation of the method of Pauwels et al. (Pauwels et al., J Virol Methods 1988 20:309-321). The method is based on the ability of compounds to protect HIV-1-infected T lymphoblastoid cells (MT4 cells) from cell-death mediated by the infection. The endpoint of the assay was calculated as the concentration of compound at which the cell viability of the culture was preserved by 50% (‘50% inhibitory concentration’, IC50). The cell viability of a culture was determined by the uptake of soluble, yellow 3-[4,5-dimethylthiazol-2-yl]-2,5-diphenyltetrazolium bromide (MTT) and its reduction to a purple insoluble formazan salt. After solubilization, spectrophotometric methods were employed to measure the amount of formazan product.
MT4 cells were prepared to be in logarithmic-phase growth and a total of 2×10^6 cells infected with the HXB2-strain of HIV-1 at a multiplicity of 0.0001 infectious units of virus per cell in a total volume of between 200-500 microliters. The cells were incubated with virus for one hour at 37° C. before removal of virus. The cells are then washed in 0.01 M phosphate buffered saline, pH 7.2 before being resuspensed in culture medium for incubation in culture with serial dilutions of test compound. The culture medium used was RPMI 1640 without phenol red, supplemented with penicillin, streptomycin, L-glutamine and 10% fetal calf serum (GM10).
Test compounds were prepared as 2 mM solutions in dimethyl sulfoxide (DMSO). Four replicate, serial 2-fold dilutions in GM10 were then prepared and 50 microliters amounts placed in 96-well plates over a final nanomolar concentration range of 625-1.22. Fifty microliters GM10 and 3.5×10^4 infected cells were then added to each well. Control cultures containing no cells (blank), uninfected cells (100% viability; 4 replicates) and infected cells without compound (total virus-mediated cell death; 4 replicates) were also prepared. The cultures were then incubated at 37° C. in a humidified atmosphere of 5% CO2 in air for 5 days.
A fresh solution of 5 mg/mL MTT was prepared in 0.01 M phosphate buffered saline, pH 7.2 and 20 microliters added to each culture. The cultures were further incubated as before for 2 hours. They were then mixed by pipetting up and down and 170 microliters of Triton X-100 in acidified isopropanol (10% v/v Triton X-100 in 1:250 mixture of concentrated HCl in isopropanol). When the formazan deposit was fully solubilized by further mixing, the absorbance (OD) of the cultures was measured at 540 nm and 690 nm wavelength (690 nm readings were used as blanks for artifacts between wells). The percent protection for each treated culture was then calculated from the equation: […]
The IC50 can be obtained from graph plots of percent protection versus log10 drug concentration.

HIV-1 RT = HIV-1 RT (Human immunodeficiency virus type 1 group M subtype B, UniProt P03366); assay: Heteropolymer HIV Reverse Transcriptase Assay: Inhibitor IC50 Determination; type: biochemical
Experimental: Heteropolymer HIV Reverse Transcriptase Assay: Inhibitor IC50 Determination
HIV-1 RT assay was carried out in 96-well Millipore MultiScreen MADVNOB50 plates using purified recombinant enzyme and a poly(rA)/oligo(dT)16 template-primer in a total volume of 50 μL. The assay constituents were 50 mM Tris/HCl, 50 mM NaCl, 1 mM EDTA, 6 mM MgCl2, 5 μM dTTP, 0.15 μCi [^3H] dTTP, 5 μg/ml poly (rA) pre annealed to 2.5 μg/ml oligo (dT)16 and a range of inhibitor concentrations in a final concentration of 10% DMSO. Reactions were initiated by adding 4 nM HIV-1 RT and after incubation at 37° C. for 30 min, they were stopped by the addition of 50 μl ice cold 20% TCA and allowed to precipitate at 4° C. for 30 min. The precipitates were collected by applying vacuum to the plate and sequentially washing with 3×200 μl of 10% TCA and 2×200 μl 70% ethanol. Finally, the plates were dried and radioactivity counted in a Packard TopCounter after the addition of 25 μl scintillation fluid per well. IC50's were calculated by plotting % inhibition versus log10 inhibitor concentrations. Representative IC50 data is depicted in TABLE 2.

[2] = Human immunodeficiency virus 1, HXB2, MT4, read-out: IC50 Antiviral wt:fbs:10%
[3] = purified recombinant enzyme, poly(rA)/oligo(dT)16 template-primer, read-out: Polymerase Inhibition IC50
[4] = Human immunodeficiency virus 1, HXB2, wild type virus, MT4 cells, 10% fetal calf serum, read-out: IC50 Antiviral wt:fbs:10%

Structure (SMILES) | IC50 [1, 2] [nM] | IC50 (HIV-1 RT; [3]) [nM] | IC50 [1, 4] [nM] | IC50 (HIV-1 RT) [nM]
N#Cc1cc(Cl)cc(Oc2c(F)c(CCc3ccncc3)[nH]c(=O)c2Br)c1 [Compound I-20, 3-[3-Bromo-5-fluoro-2-oxo-6-(2-pyridin-4-yl-ethyl)-1,2-dihydro-pyridin-4-yloxy]-5-chloro-benzonitrile] | 4.4 | 1.5 | – | –
CCc1c(C)[nH]c(=O)c(Br)c1Oc1cc(Cl)cc(C#N)c1 [II-6, 3-(3-Bromo-5-ethyl-6-methyl-2-oxo-1,2-dihydro-pyridin-4-yloxy)-5-chloro-benzonitrile] | – | 7.3 | 2.4 | –
N#Cc1cc(Cl)cc(Oc2c(CSCc3ccccc3)c[nH]c(=O)c2Br)c1 [II-18, 3-(5-Benzylsulfanylmethyl-3-bromo-2-oxo-1,2-dihydro-pyridin-4-yloxy)-5-chloro-benzonitrile] | – | – | 4.2 | 0.4
N#Cc1cc(Cl)cc(Oc2cc(CCc3nc4ccccc4o3)[nH]c(=O)c2Cl)c1 [Compound I-19, 3-[6-(2-Benzooxazol-2-yl-ethyl)-3-chloro-2-oxo-1,2-dihydro-pyridin-4-yloxy]-5-chloro-benzonitrile] | 6.9 | 6.3 | – | –
C=Cc1c(Oc2cc(Cl)cc(C#N)c2)c(CC)c[nH]c1=O [II-3, 3-Chloro-5-(5-ethyl-2-oxo-3-vinyl-1,2-dihydro-pyridin-4-yloxy)-benzonitrile] | – | 5.6 | 3.3 | –
